Measurements reported in ChEMBL document CHEMBL1153759, “Surface plasmon resonance-based detection of ladder-shaped polyethers by inhibition detection method” (Bioorg Med Chem Lett, 2009).
The source made the active and inactive calls. The calls are words filed in the database; no cut-off is given here.

How the values were obtained:
[1] = biological target: 3',5'-cyclic-AMP phosphodiesterase 4D (Homo sapiens, UniProt Q08499); experiment: Binding affinity to recombinant PDE4D by surface plasmon resonance assay
[2] = (§1) Inhibition of bovine spleen PDE2 by surface plasmon resonance assay; parameters: species or system Bos taurus
Bos taurus [3] = species on record: Bos taurus; experiment: as §1
Bos taurus [4] = species on record: Bos taurus; experiment: Inhibition of bovine spleen PDE2 up to 100 uM after 20 to 40 seconds by surface plasmon resonance assay
[5] = Binding affinity to bovine spleen PDE2 by surface plasmon resonance assay; parameters: species or system Bos taurus

Chain of 3',5'-cyclic-AMP phosphodiesterase 4D (Q08499 whole entry): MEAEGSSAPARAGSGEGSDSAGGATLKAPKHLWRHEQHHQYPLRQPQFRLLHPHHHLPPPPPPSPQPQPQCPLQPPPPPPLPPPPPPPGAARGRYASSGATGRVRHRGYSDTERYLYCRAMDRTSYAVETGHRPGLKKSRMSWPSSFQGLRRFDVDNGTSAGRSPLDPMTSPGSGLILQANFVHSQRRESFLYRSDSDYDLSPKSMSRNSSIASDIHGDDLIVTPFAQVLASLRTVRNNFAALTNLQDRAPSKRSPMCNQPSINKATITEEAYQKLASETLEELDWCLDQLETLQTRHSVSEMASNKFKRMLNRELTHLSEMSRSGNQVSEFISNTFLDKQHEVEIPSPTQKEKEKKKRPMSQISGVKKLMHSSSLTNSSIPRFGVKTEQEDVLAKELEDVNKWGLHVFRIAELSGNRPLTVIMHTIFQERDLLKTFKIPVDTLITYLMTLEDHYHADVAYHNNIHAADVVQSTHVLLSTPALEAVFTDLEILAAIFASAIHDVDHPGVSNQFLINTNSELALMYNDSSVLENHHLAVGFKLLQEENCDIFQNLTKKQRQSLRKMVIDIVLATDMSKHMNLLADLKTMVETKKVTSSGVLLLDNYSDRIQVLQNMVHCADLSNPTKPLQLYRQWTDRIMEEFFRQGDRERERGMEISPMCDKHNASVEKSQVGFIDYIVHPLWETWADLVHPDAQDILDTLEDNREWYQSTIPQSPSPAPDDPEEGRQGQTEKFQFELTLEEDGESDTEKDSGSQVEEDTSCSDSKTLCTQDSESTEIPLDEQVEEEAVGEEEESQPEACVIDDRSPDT

Compound: C[C@@]12CC[C@@H]3O[C@H](CO)[C@@H](O)C[C@H]3O[C@H]1C[C@H]1O[C@@H](CCO)[C@H](O)C[C@@H]1O2
- Kd [1]: 29 µM
- IC50 [2]: > 100 µM

Compound: C=CCC(=C)/C=C/[C@@](C)(O)[C@H]1O[C@@H]2C[C@@H]3O[C@@H]4C[C@@H]5O[C@@H]6C[C@@H]7O[C@@H]8C[C@@H]9O[C@@H]%10C[C@@H]%11O[C@](C)(CCO)[C@@H](O)C[C@H]%11O[C@H]%10C[C@H]9O[C@H]8CC[C@@]7(C)O[C@@]6(C)CC[C@H](C)[C@H]5O[C@H]4C[C@@]3(C)O[C@H]2CC1=C [DESULFATED YESSOTOXIN]
- Kd [1]: 2 µM
- IC50 [2]: 1.7 µM
- inhibition (Bos taurus [3]): Dose-dependent effect
- inhibition (Bos taurus [4]): Active

Compound: C=C(C=O)C[C@@H]1C[C@H](O)[C@]2(C)O[C@@H]3C[C@@H]4O[C@@H]5C[C@]6(C)O[C@]7(C)CC[C@@H]8O[C@@H]9C[C@]%10(C)O[C@@H]%11C(C)=CC(=O)O[C@H]%11C[C@H]%10O[C@H]9C[C@@H](C)[C@H]8O[C@H]7C[C@H]6O[C@H]5C/C=C\[C@H]4O[C@H]3C[C@H]2O1 [BREVETOXIN]
- Kd [1]: 3.8 µM
- IC50 [2]: 1.8 µM
- inhibition (Bos taurus [4]): Active

Compound: C=CCC(=C)/C=C/[C@@](C)(O)[C@H]1O[C@@H]2C[C@@H]3O[C@@H]4C[C@@H]5O[C@@H]6C[C@@H]7O[C@@H]8C[C@@H]9O[C@@H]%10C[C@@H]%11O[C@](C)(CCOS(=O)(=O)O)[C@@H](OS(=O)(=O)O)C[C@H]%11O[C@H]%10C[C@H]9O[C@H]8CC[C@@]7(C)O[C@@]6(C)CC[C@H](C)[C@H]5O[C@H]4C[C@@]3(C)O[C@H]2CC1=C [YESSOTOXIN]
- Kd [5]: 2200 nM
- Kd [1]: 1 µM
- IC50 [2]: 3 µM
- inhibition (Bos taurus [4]): Active

Compound: C[C@@]12CC[C@@H]3O[C@H](CO)[C@@H](O)C[C@H]3O[C@H]1C[C@H]1O[C@@H](CCOCc3ccccc3)[C@H](OCc3ccccc3)C[C@@H]1O2
- Kd [1]: 11 µM
- IC50 [2]: 13 µM

Compound: OC[C@H]1O[C@@H](CCOCc2ccccc2)[C@H](OCc2ccccc2)C[C@@H]1O
- Kd [1]: 80 µM
- IC50 [2]: > 100 µM

Compound: CC[C@@H](C(=O)[C@@H](C)[C@@H](O)[C@H](C)[C@@H]1O[C@@H]([C@@H](CC)C(=O)O)CC[C@@H]1C)[C@H]1O[C@]2(C=C[C@@H](O)[C@]3(CC[C@@](C)([C@H]4CC[C@](O)(CC)[C@H](C)O4)O3)O2)[C@H](C)C[C@@H]1C [SALINOMYCIN SODIUM]
- IC50 [2]: > 100 µM

Compound: C[C@@]12CC[C@@H]3O[C@@H]4C[C@@H]5O[C@@H]6C[C@H](O)[C@@H](CO)O[C@H]6CC[C@@]5(C)O[C@H]4C[C@H]3O[C@H]1C[C@H]1O[C@@H](CCOCc3ccccc3)[C@H](OCc3ccccc3)C[C@@H]1O2
- Kd [1]: 4.8 µM
- IC50 [2]: 9.2 µM
